# Entries after “also recorded” stand apart in the source; their conditions may differ.
# How the values were obtained:
# [1] = system: Arabidopsis thaliana plants; test: SOA1 phenotypic analysis of herbicide-treated plants; format: in vivo; conditions: for Symptom Class: three-week-old plants, foliar spray; for characteristic symptoms (phenotype): herbicide-treated plants
# Arabidopsis thaliana [2] = test: MOA1 gene expression profiling (22,000-gene microarray); conditions: for No. of Lethal Genes Altered: regulated genes compared to internal list of essential genes
# Arabidopsis thaliana [3] = test: MOA1 biochemical (metabolite) profiling by LC-MS and GC-MS; conditions: for stress-related metabolites: within one hour after spraying
# [4] = system: Saccharomyces cerevisiae wild type strain BY4743; test: AF1 yeast metabolite analysis by GC-MS and LC-MS; format: cell-based
# Magnaporthe grisea = format: cell-based
# [5] = numeric value standardized to mock treated
smiles,measurement,setting,value
"O=C(O)COc1ccc(Cl)cc1Cl [2,4-D]",tMic Dev.,[1]; [5],2
same,Symptom Class,[1],5
O=C(O)c1cc(Oc2ccc(C(F)(F)F)cc2Cl)ccc1[N+](=O)[O-] [Acifluorfen],characteristic symptoms (phenotype),[1],Necrotic leaf flecks
Nc1nc[nH]n1 [Amitrole],characteristic symptoms (phenotype),[1],leaf bleaching and leaf enlargement
COC(=O)NS(=O)(=O)c1ccc(N)cc1 [Asulam],No. of Lethal Genes Altered,Arabidopsis thaliana [2],5
CCNc1nc(Cl)nc(NC(C)C)n1 [Atrazine],characteristic symptoms (phenotype),[1],rapid and widespread leaf necrosis
CC(C)N1C(=O)c2ccccc2NS1(=O)=O [Bentazon],characteristic symptoms (phenotype),[1],rapid and widespread leaf necrosis
COC(=O)c1cc(Oc2ccc(Cl)cc2Cl)ccc1[N+](=O)[O-] [Bifenox],characteristic symptoms (phenotype),[1],Necrotic leaf flecks
CCSC(=O)N(CC(C)C)CC(C)C [Butylate],stress-related metabolites,Arabidopsis thaliana [3],neither butylate nor chlorpropham treatment resulted in many changes
CC(C)OC(=O)Nc1cccc(Cl)c1 [Chloropropham],stress-related metabolites,Arabidopsis thaliana [3],neither butylate nor chlorpropham treatment resulted in many changes
COc1nc(C)nc(NC(=O)NS(=O)(=O)c2ccccc2Cl)n1 [Chlorsulfuron],characteristic symptoms (phenotype),[1],anthocyanin accumulation in the older leaves accompanied by chlorosis of the newly emerging leaves
same,No. of Lethal Genes Altered,Arabidopsis thaliana [2],8
c1cc[n+]2c(c1)-c1cccc[n+]1CC2 [Diquat],characteristic symptoms (phenotype),[1],rapid and widespread leaf necrosis
same,tMic Dev.,[1]; [5],2
same,Symptom Class,[1],7
CN(C)C(=O)Nc1ccc(Cl)c(Cl)c1 [Diuron],characteristic symptoms (phenotype),[1],rapid and widespread leaf necrosis
same,newLeafAnthocyanins Dev.,[1]; [5],newLeafAnthocyanins 0
same,tMic Dev.,[1]; [5],1
same,Symptom Class,[1],7
OC(Cn1cncn1)(Cn1cncn1)c1ccc(F)cc1F [Fluconazole],Fold Change of TMS mevalonic acid lactone,[4]; GC,0.1434
same,Fold Change of squalene,[4]; GC,0.1999
same,Fold Change of tetradecanoic acid,[4]; GC,0.07967
same,Fold Change of threonine2,[4]; GC,0.5053
same,Fold Change of threonine3,[4]; GC,0.2513
same,Fold Change of tms glutamine3,[4]; GC,0.7271
same,Fold Change of tms lysine4,[4]; GC,0.3657
same,Fold Change of tms tyrosine2,[4]; GC,0.8643
same,Fold Change of tms tyrosine3,[4]; GC,0.3321
same,Fold Change of valine,[4]; GC,0.2727
same,Fold Change of retinoic acid,[4]; nLC,0
same,Fold Change of salicylic/HObenzoic,[4]; nLC,0
same,Fold Change of selenoDLmethionine,[4]; nLC,−0.5748
same,Fold Change of serine,[4]; nLC,0.3936
same,Fold Change of shikimic acid,[4]; nLC,0
same,Fold Change of sinapinic acid,[4]; nLC,0
same,Fold Change of sorbitol/mannitol,[4]; nLC,0.365
same,Fold Change of succinic,[4]; nLC,0.3094
same,Fold Change of sucrose,[4]; nLC,0.3104
same,Fold Change of sugar-phosphate,[4]; nLC,−0.05306
same,Fold Change of tetradecanoic acid,[4]; nLC,0.5495
same,Fold Change of threonine/homoserin,[4]; nLC,0.3257
same,Fold Change of thymine,[4]; nLC,0
same,Fold Change of tryptophan,[4]; nLC,1.649
same,Fold Change of tyrosine,[4]; nLC,0.2303
same,Fold Change of uracil,[4]; nLC,1.256
same,Fold Change of uridine,[4]; nLC,0.3463
same,Fold Change of urocanic acid,[4]; nLC,0
same,Fold Change of valine,[4]; nLC,0.3235
same,Fold Change of xanthosineDiH2O,[4]; nLC,0
same,Fold Change of zeatin,[4]; nLC,0
same,Fold Change of riboflavin,[4]; pLC,0
same,Fold Change of selenoDLmethionine,[4]; pLC,−0.6865
same,Fold Change of serine,[4]; pLC,0.11
same,Fold Change of sugar-phosphate,[4]; pLC,0
same,Fold Change of thiamine,[4]; pLC,0
same,Fold Change of threonine/homoserin,[4]; pLC,0.1604
same,Fold Change of thymine,[4]; pLC,0
same,Fold Change of tryptophan,[4]; pLC,0
same,Fold Change of tyrosine,[4]; pLC,0.1099
same,Fold Change of uric acid,[4]; pLC,0
same,Fold Change of urocanic acid,[4]; pLC,0
same,Fold Change of xanthosine(diH2O),[4]; pLC,0
same,Fold Change of zeatin,[4]; pLC,0
same,Fold Change of campesterol,[4]; platform GC,0
same,Fold Change of desmosterol,[4]; platform GC,0
same,Fold Change of octadecanoic acid,[4]; platform GC,0.082
same,Fold Change of abscisic acid,[4]; platform LC,0
same,Fold Change of adenosine,[4]; platform LC,0
same,Fold Change of 4-methylcatechol,[4]; platform nLC,0
same,Fold Change of 5hydroxyLtryptophan,[4]; platform nLC,0
same,Fold Change of 6-benzylaminopurine,[4]; platform nLC,0
same,Fold Change of NacetylDglucosamine,[4]; platform nLC,0
same,Fold Change of NacetylLornithine,[4]; platform nLC,0
same,Fold Change of abscisic acid,[4]; platform nLC,0
same,Fold Change of adenine,[4]; platform nLC,0
same,Fold Change of adenosine,[4]; platform nLC,0
same,Fold Change of anthranilic acid,[4]; platform nLC,0
same,Fold Change of argininosuccinate,[4]; platform nLC,0
same,Fold Change of benzoic acid,[4]; platform nLC,0
same,Fold Change of catechol,[4]; platform nLC,0
same,Fold Change of cinnamic acid,[4]; platform nLC,0
same,Fold Change of citricanoic/itaconi,[4]; platform nLC,0
same,Fold Change of citrulline,[4]; platform nLC,0
same,Fold Change of coumaric acid,[4]; platform nLC,0
same,Fold Change of cytosine,[4]; platform nLC,0
same,Fold Change of diaminopimelic acid,[4]; platform nLC,0
same,Fold Change of dihydrofolic acid,[4]; platform nLC,0
same,Fold Change of estrone,[4]; platform nLC,0
same,Fold Change of farnesol,[4]; platform nLC,0
same,Fold Change of folic acid,[4]; platform nLC,0
same,Fold Change of gibberellic,[4]; platform nLC,0
same,Fold Change of glutamine/lysine,[4]; platform nLC,0.3309
same,Fold Change of guanine,[4]; platform nLC,0
same,Fold Change of histidine,[4]; platform nLC,0
same,Fold Change of homogentisic/uric,[4]; platform nLC,0
same,Fold Change of hydrocortisone,[4]; platform nLC,0
same,Fold Change of indole3pyruvic acid,[4]; platform nLC,0
same,Fold Change of jasmonic acid,[4]; platform nLC,0
same,Fold Change of kinetin,[4]; platform nLC,0
same,Fold Change of luteolin,[4]; platform nLC,0
same,Fold Change of malonic acid,[4]; platform nLC,0
same,Fold Change of methionine,[4]; platform nLC,0
same,Fold Change of orotic acid,[4]; platform nLC,0
same,Fold Change of phenylpyruvic acid,[4]; platform nLC,0
same,Fold Change of phosphoenolpyruvate,[4]; platform nLC,0
same,Fold Change of pinitol,[4]; platform nLC,0
same,Fold Change of porphobilinogen,[4]; platform nLC,0
same,Fold Change of 4-aminobenzoic acid,[4]; platform pLC,0
same,Fold Change of 4-methylcatechol,[4]; platform pLC,0
same,Fold Change of 5hydroxyLtryptophan,[4]; platform pLC,0
same,Fold Change of 6benzylaminopurine,[4]; platform pLC,0
same,Fold Change of NacetylDglucosamine,[4]; platform pLC,0
same,Fold Change of NacetylLglutamate,[4]; platform pLC,0
same,Fold Change of allantoic acid,[4]; platform pLC,0
same,Fold Change of anthranilic acid,[4]; platform pLC,0
same,Fold Change of argininosuccinate,[4]; platform pLC,0
same,Fold Change of biotin,[4]; platform pLC,0
same,Fold Change of caffeine,[4]; platform pLC,0
same,Fold Change of citric acid TME,[4]; platform pLC,0
same,Fold Change of cytidine,[4]; platform pLC,0
same,Fold Change of cytosine,[4]; platform pLC,0
same,Fold Change of diaminopimelic acid,[4]; platform pLC,0
same,Fold Change of dihydrofolic acid,[4]; platform pLC,0
same,Fold Change of dipicolinic acid,[4]; platform pLC,0
same,Fold Change of folic acid,[4]; platform pLC,0
same,Fold Change of glucosamine,[4]; platform pLC,0
same,Fold Change of glucosamine6PO4,[4]; platform pLC,0
same,Fold Change of histidine,[4]; platform pLC,0
same,Fold Change of hydrocortisone,[4]; platform pLC,0
same,Fold Change of itaconic acid dimes,[4]; platform pLC,0
same,Fold Change of kinetin,[4]; platform pLC,0
same,Fold Change of luteolin,[4]; platform pLC,0
same,Fold Change of niacinamide,[4]; platform pLC,0
same,Fold Change of nopaline,[4]; platform pLC,0
same,Fold Change of phosphoenolpyruvate,[4]; platform pLC,0
same,Fold Change of progesterone,[4]; platform pLC,0
CP(=O)(O)CCC(N)C(=O)O (stereo not shown) [Glufosinate],characteristic symptoms (phenotype),[1],Chlorosis and leaf curling
same,tMic Dev.,[1]; [5],1
same,Symptom Class,[1],3
same,No. of Lethal Genes Altered,Arabidopsis thaliana [2],10
O=C(O)CNCP(=O)(O)O [Glyphosate],characteristic symptoms (phenotype),[1],anthocyanin accumulation in the older leaves accompanied by chlorosis of the newly emerging leaves
same,tMic Dev.,[1]; [5],2
same,Symptom Class,[1],4
same,growth inhibition with aromatic amino acids included in the media,Magnaporthe grisea; 1.0 mg/ml,remediated
same,growth of M. grisea (Tier 4),Magnaporthe grisea; ammonium or glutamine as nitrogen source,Little growth defect
same,Number of Metabolites Changed: Total #,"Arabidopsis thaliana [3]; 20 min, p < 0.05",4
same,tyrosine (downstream of SOA) relative to the control,Arabidopsis thaliana [3]; after one hour,decreased
CC(C)C1(C)N=C(c2ncccc2C(=O)O)NC1=O (stereo not shown) [Imazapyr],characteristic symptoms (phenotype),[1],anthocyanin accumulation in the older leaves accompanied by chlorosis of the newly emerging leaves
CCc1cnc(C2=NC(C)(C(C)C)C(=O)N2)c(C(=O)O)c1 (stereo not shown) [Imazethapyr],characteristic symptoms (phenotype),[1],anthocyanin accumulation in the older leaves accompanied by chlorosis of the newly emerging leaves
CS(=O)(=O)c1cc(C(F)(F)F)ccc1C(=O)c1cnoc1C1CC1 [Isoxaflutole],Alpha-tocopherol levels relative to the control,Arabidopsis thaliana [3]; early time points,not significantly changed
same,tyrosine and phenylalanine relative to the control,Arabidopsis thaliana [3]; early time points (up to 1 hour),up-regulated; also recorded: began to accumulate
same,alterations in the expression of genes involved in the homogentisate biosynthetic pathway,Arabidopsis thaliana [2]; 1 hr,not observed
same,No. of Lethal Genes Altered,Arabidopsis thaliana [2],15
CC(=O)N1CCN(c2ccc(OCC3COC(Cn4ccnc4)(c4ccc(Cl)cc4Cl)O3)cc2)CC1 (stereo not shown) [Ketoconazole],# Compounds perturbed,"[4]; P < 0.1, 2×MIC, two hours",15
CSc1nnc(C(C)(C)C)c(=O)n1N [Metribuzin],characteristic symptoms (phenotype),[1],rapid and widespread leaf necrosis
O=C(O)c1ccccc1C(=O)Nc1cccc2ccccc12 [Naptalam],No. of Lethal Genes Altered,Arabidopsis thaliana [2],3
C[n+]1ccc(-c2cc[n+](C)cc2)cc1 [Paraquat],characteristic symptoms (phenotype),[1],rapid and widespread leaf necrosis
same,Symptom Class,[1],7
CC[C@@H]([C@H](C)O)n1ncn(-c2ccc(N3CCN(c4ccc(OC[C@@H]5CO[C@@](Cn6cncn6)(c6ccc(F)cc6F)C5)cc4)CC3)cc2)c1=O [Posaconazoie],Fold Change of luteolin,[4]; LC,0
CC[C@@H]([C@H](C)O)n1ncn(-c2ccc(N3CCN(c4ccc(OC[C@@H]5CO[C@@](Cn6cncn6)(c6ccc(F)cc6F)C5)cc4)CC3)cc2)c1=O [Posaconazote],"Fold Change, porphobilinogen","[4]; detected metabolite porphobilinogen, platform nLC",0

# — patent US20040018501A1, “Methods and systems for analyzing complex biological systems” (priority 2001, published 2004)
